One test concerns the target T1, rat B1R (Rattus norvegicus, UniProt P97583).
T1 construct: expressed in transfected cells; host or cells: CHO K1 cells
T1 sequence (P97583 1-337): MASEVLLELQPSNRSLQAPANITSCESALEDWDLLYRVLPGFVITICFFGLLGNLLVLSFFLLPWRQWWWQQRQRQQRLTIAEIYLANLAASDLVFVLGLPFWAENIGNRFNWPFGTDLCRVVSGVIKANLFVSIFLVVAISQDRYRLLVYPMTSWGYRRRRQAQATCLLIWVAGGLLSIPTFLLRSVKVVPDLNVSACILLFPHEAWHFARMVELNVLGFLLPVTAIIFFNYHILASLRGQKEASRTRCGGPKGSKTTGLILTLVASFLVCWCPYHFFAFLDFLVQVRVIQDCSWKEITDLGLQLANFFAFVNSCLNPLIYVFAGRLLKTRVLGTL
The test can be described thus: FLIPR Ca2+ functional study on bradykinin receptor 1 (rB1R CHO K1 cells). The settings on record: % inhibition rat B1R at 10 μM. Type of test: cell-based. The gist of the method: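 CHO K1 cells stably expressing human or rat B1R were loaded with Fluo-4 and read on FLIPR (ex 488/em 540 nm, peak counts). Test compound (10 μM, or a concentration range for IC50) was added first for % activation versus control agonist; after 10-20 min, EC80 Lys-Des-Arg9-bradykinin (human) or Des-Arg9-bradykinin (rat) was added, giving % inhibition of maximum. n=2-3, N≥2.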
As for `COc1cc(C)c(S(=O)(=O)N2CCCCC2COc2ccnc(N3CCN(c4ccncc4)CC3)n2)c(C)c1` (stereo not shown) [H_CC-005, 4-[[1-(4-methoxy-2,6-dimethylphenyl)sulfonyl-2-pipendinyl]methoxy]-2-[4-(4-pyridyl)-1-piperazinyl]pyrimidine], the “% inh. (rat B1R) 10 μM” value was 94%.

As for “4-[[1-[(4-methoxy-2,6-dimethyl-phenyl)sulfonyl]-piperidin-2-yl]-methoxy]-2-(4-pyrazin-2-yloxy-piperidin-1-yl)-pyrimidine [H_CC-080]”, the “% inh. (rat B1R) 10 μM” value worked out at 59%.

Still in this test, the particulars now being: CHO-K1, % inhibition rat B1R at 10 μM, read-out: % inh. (rat B1R) 10 μM.
As for `COc1cc(C)c(S(=O)(=O)N(C)CCOc2ccnc(N3CCC4(CCN(Cc5ccc(F)cc5)C4=O)CC3)n2)c(C)c1` [H_CC-039, N-[2-[[2-[3-[(4-fluorophenyl)methyl]-4-oxo-3,8-diazaspiro[4.5]decan-8-yl]-4-pyrimidinyl]oxy]ethyl]-4-methoxy-N,2,6-trimethylbenzenesulfonamide], the inhibition at 10 µM stood at 50%.

As for `COc1cc(C)c(S(=O)(=O)N(C)C(COc2nccc(N3CCC(CCCN4CCCC4)(c4cccnc4)CC3)n2)c2ccccc2)c(C)c1` (stereo not shown) [G_CC-108, 4-methoxy-N,2,6-trimethyl-N-[1-phenyl-2-[4-[4-pyridin-3-yl-4-(3-pyrrolidin-1-yl-propyl)-piperidin-1-yl]-pyrimidin-2-yl]oxy-ethyl]-benzenesulfonic acid amide], the inhibition at 10 µM was found to be 102%. As to `COc1cc(C)c(S(=O)(=O)N2CCCC(Oc3ccnc(N(C)CCCN4CCC(c5ccccc5)(N(C)C)CC4)n3)C2)c(C)c1` (stereo not shown) [H_CC-073, 3-(4-dimethylamino-4-phenyl-piperidin-1-yl)-propyl-[4-[1-[(4-methoxy-2,6-dimethyl-phenyl)sulfonyl]-piperidin-3-yl]oxy-pyrimidin-2-yl]-methyl-amine], the inhibition at 10 µM is 55%. As for `COc1cc(C)c(S(=O)(=O)N2CCCCC2COc2nccc(N3CCCC3Cc3ccccn3)n2)c(C)c1` (stereo not shown) [G_CC-081, 2-[[1-[(4-methoxy-2,6-dimethyl-phenyl)sulfonyl]-piperidin-2-yl]-methoxy]-4-[2-(pyridin-2-yl-methyl)-pyrrolidin-1-yl]-pyrimidine], the inhibition at 10 µM turned out to be 88%. The same measure, in the same setting: as for `COc1cc(C)c(S(=O)(=O)N2CCC[C@H]2COc2nccc(N(C)CCN3CCC(c4ccccc4)(N(C)C)CC3)n2)c(C)c1` [G_CC-088, 2-(4-dimethylamino-4-phenyl-piperidin-1-yl)-ethyl-[2-[[(2S)-1-[(4-methoxy-2,6-dimethyl-phenyl)sulfonyl]-pyrrolidin-2-yl]-methoxy]-pyrimidin-4-yl]-methyl-amine], the figure is 100%.

On to `COc1cc(C)c(S(=O)(=O)N(C)CCOc2nccc(N3CCC(c4ccccc4)(N4CCCC4)CC3)n2)c(C)c1` [G_CC-116, 4-methoxy-N,2,6-trimethyl-N-[2-[4-(4-phenyl-4-pyrrolidin-1-yl-piperidin-1-yl)-pyrimidin-2-yl]oxy-ethyl]benzenesulfonic acid amide], for which the inhibition at 10 µM is 64%. Turning to `COc1cc(C)c(S(=O)(=O)N2CCCCC2COc2ccnc(N3CCN(C)CC3)n2)c(C)c1` (stereo not shown) [H_CC-003, 4-[[1-(4-methoxy-2,6-dimethylphenyl)sulfonyl-2-piperidinyl]methoxy]-2-(4-methyl-1-piperazinyl)pyrimidine], the inhibition at 10 µM was 58%. In the case of `COc1cc(C)c(S(=O)(=O)N2CCCCC2COc2nccc(N3[C@@H]4CC[C@H]3CC(Oc3cccnc3)C4)n2)c(C)c1` (stereo partly drawn) [G_CC-105, (1S,5R)-8-[2-[[1-[(4-methoxy-2,6-dimethyl-phenyl)sulfonyl]-piperidin-2-yl]-methoxy]-pyrimidin-4-yl]-3-pyridin-3-yloxy-8-azabicyclo[3.2.1]octane], the inhibition at 10 µM worked out at 101%.

With `COc1cc(C)c(S(=O)(=O)N2CCCCC2COc2ccnc(N3CCC(CCCN4CCCC4)(c4cccnc4)CC3)n2)c(C)c1` (stereo not shown) [H_CC-082, 4-[[1-[(4-methoxy-2,6-dimethyl-phenyl)sulfonyl]-piperidin-2-yl]-methoxy]-2-[4-pyridin-3-yl-4-(3-pyrrolidin-1-yl-propyl)piperidin-1-yl]-pyrimidine], the inhibition at 10 µM stood at 72%.

As for `COc1cc(C)c(S(=O)(=O)N2CCCCC2COc2nccc(N3CCC(O)(c4ccncc4)CC3)n2)c(C)c1` (stereo not shown) [G_CC-111, 1-[2-[[1-[(4-methoxy-2,6-dimethyl-phenyl)sulfonyl]-piperidin-2-yl]-methoxy]-pyrimidin-4-yl]-4-pyridin-4-yl-piperidin-4-ol], the inhibition at 10 µM was 90%. With `COc1cc(C)c(S(=O)(=O)N2CCC[C@H]2COc2nccc(N3CCn4cc(CN5CCCCC5)nc4C3)n2)c(C)c1` [G_CC-109, 7-[2-[[(2S)-1-[(4-methoxy-2,6-dimethyl-phenyl)sulfonyl]-pyrrolidin-2-yl]-methoxy]-pyrimidin-4-yl]-2-(piperidin-1-yl-methyl)-5,6,7,8-tetrahydro-imidazo[1,2-a]pyrazine], the inhibition at 10 µM was 98%. As for `COc1cc(C)c(S(=O)(=O)N2CCCCC2COc2ccnc(N3CCC(CNC(=O)c4ccncc4)(N4CCN(C)CC4)CC3)n2)c(C)c1` (stereo not shown) [H_CC-031, N-[[1-[4-[[1-(4-methoxy-2,6-dimethylphenyl)sulfonyl-2-piperidinyl]methoxy]-2-pyrimidinyl]-4-(4-methyl-1-piperazinyl)-4-piperidinyl]methyl]-4-pyridinecarboxamide], the inhibition at 10 µM was found to be 56%.

With `CCCCC1(N(C)C)CCN(c2ccnc(OCC3CCCCN3S(=O)(=O)c3c(C)cc(OC)cc3C)n2)CC1` (stereo not shown) [G_CC-069, [4-butyl-1-[2-[[1-[(4-methoxy-2,6-dimethyl-phenyl)sulfonyl]-piperidin-2-yl]-methoxy]-pyrimidin-4-yl]-piperidin-4-yl]-dimethyl-amine], the inhibition at 10 µM was found to be 102%. As to `COc1cc(C)c(S(=O)(=O)N2CC(Oc3nccc(N4CCC(c5ccccc5)(N5CCCC5)CC4)n3)C2)c(C)c1` [G_CC-122, 2-[1-[(4-methoxy-2,6-dimethyl-phenyl)sulfonyl]-azetidin-3-yl]oxy-4-(4-phenyl-4-pyrrolidin-1-yl-piperidin-1-yl)-pyrimidine], the inhibition at 10 µM is 51%.

As to `COc1cc(C)c(S(=O)(=O)N2CCCCC2COc2nccc(N3CCC(O)(c4ccccn4)CC3)n2)c(C)c1` (stereo not shown) [G_CC-082, 1-[2-[[1-[(4-methoxy-2,6-dimethyl-phenyl)sulfonyl]-piperidin-2-yl]-methoxy]-pyrimidin-4-yl]-4-pyridin-2-yl-piperidin-4-ol], the inhibition at 10 µM turned out to be 73%.

In the case of `COc1cc(C)c(S(=O)(=O)N2c3ccccc3C[C@H]2COc2nccc(N(C)CCN3CCC(c4ccccc4)(N(C)C)CC3)n2)c(C)c1` [G_CC-094, 2-(4-dimethylamino-4-phenyl-piperidin-1-yl)-ethyl-[2-[[(2S)-1-[(4-methoxy-2,6-dimethyl-phenyl)sulfonyl]-2,3-dihydro-1H-indol-2-yl]-methoxy]-pyrimidin-4-yl]-methyl-amine], the inhibition at 10 µM was 102%. On the same count and under the same terms, as for `COc1cc(C)c(S(=O)(=O)N(C)CCOc2nccc(N3CCC4(CC3)C(=O)N(C)CC4c3ccc(F)cc3)n2)c(C)c1` (stereo not shown) [G_CC-044, N-[2-[[4-[1-(4-fluorophenyl)-3-methyl-4-oxo-3,8-diazaspiro[4.5]decan-8-yl]-2-pyrimidinyl]oxy]ethyl]-4-methoxy-N,2,6-trimethylbenzenesulfonamide], the figure is 68%.

The record behind these values is patent publication US8269000B2, “Substituted pyrimidine and triazine compounds” (Gruenenthal GmbH, priority 2008, dated 2012).
